US20210355105A1, “REGULATOR OF NITROGEN-CONTAINING HETEROAROMATIC DERIVATIVES, PREPARATION METHOD THEREFOR AND USE THEREOF” (Jiangsu Hansoh Pharmaceutical Group Co., Ltd., priority 2018, published 2021)

What was measured:
[1] = test system: NCI-H358 cells; test: Proliferation inhibition of NCI-H358 cells (CellTiter-Glo); type: cell-based; details: Homo sapiens, NCI-H358, 72 h; 3 days incubation
Method: Experimental method: 3000 cells (90 μL of cell suspension) were inoculated to each well of a 96-well cell culture plate (Corning, #3610). The culture plate was incubated in an incubator overnight (37° C., 5% CO2). On the next day, 10 μL of gradient dilutions of the test compound solution (the final DMSO content was 0.2%, V/V, the final concentration of the reaction system ranged from 10 μM to 4.5 nM) was added to each well of the culture plate. At the same time, full activity control (compound only with DMSO) and full inhibition control (no cells) were set up on the reaction plate. The culture plate was incubated in the incubator for 3 days (37° C., 5% CO2).
After completion of the incubation, 50 μL of CellTiter-Glo reagent was added to each well of the cell culture plate, which was left to stand at room temperature for 10 minutes. The chemiluminescence signal value was measured in the Synergy H1 full-function microplate reader (BioTek). […] The IC50 value of the test compounds was calculated by fitting the percentage inhibition rate and data of eight concentrations to a four-parameter nonlinear logic formula with GraphPad prism.
The IC50 value was calculated by fitting the data of different concentrations and corresponding percentage inhibition rates to a four-parameter nonlinear logic formula with GraphPad prism.

[2] = target: T1, SHP-2 full-length protein (Homo sapiens, UniProt Q06124); test: Inhibition of SHP-2 kinase activity (Homogeneous Full Length SHP-2 Assay Kit); type: biochemical; details: relative IC50, full-length SHP-2 with activating peptide
T1 construct: purchased BPS Bioscience 79330
T1 sequence (Q06124 1-593): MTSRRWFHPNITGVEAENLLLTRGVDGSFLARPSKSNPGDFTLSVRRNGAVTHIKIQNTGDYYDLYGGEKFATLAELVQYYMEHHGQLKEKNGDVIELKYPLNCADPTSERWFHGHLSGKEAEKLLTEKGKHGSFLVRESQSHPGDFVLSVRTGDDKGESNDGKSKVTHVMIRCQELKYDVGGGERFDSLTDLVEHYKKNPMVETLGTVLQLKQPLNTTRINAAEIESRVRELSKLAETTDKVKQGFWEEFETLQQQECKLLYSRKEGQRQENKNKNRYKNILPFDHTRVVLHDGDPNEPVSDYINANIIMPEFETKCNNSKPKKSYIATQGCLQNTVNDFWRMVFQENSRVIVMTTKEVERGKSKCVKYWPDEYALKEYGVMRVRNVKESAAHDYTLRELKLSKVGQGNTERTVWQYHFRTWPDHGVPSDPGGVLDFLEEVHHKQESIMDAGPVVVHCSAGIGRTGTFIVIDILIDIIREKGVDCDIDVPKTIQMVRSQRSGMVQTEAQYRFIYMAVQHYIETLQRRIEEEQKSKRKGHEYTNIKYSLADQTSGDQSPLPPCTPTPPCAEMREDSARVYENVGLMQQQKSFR
Method: The objective of this test is to determine the inhibitory effect of the compounds on SHP-2 full-length protein allosteric activity.
Experimental method: Homogeneous Full Length SHP-2 Assay Kit (BPS Bioscience, #79330) was used to determine the in vitro SHP-2 activity. First, 18 μL of Master Mix was added to a 96-well low adsorption microplate (NUNC, #267342), i.e., the reaction buffer with a final concentration of 1× comprised 0.5 μM SHP-2 activating Peptide and 5 mM DTT. After centrifugation, 5 μL of test compound/DMSO was added to each well (the final DMSO content was 1%, V/V, the test compound was dissolved in DMSO to 1 mM, a three-fold serial dilution was carried out to obtain ten concentrations, the final concentration of the reaction system ranged from 1 μM to 0.05 nM). SHP-2 was diluted in the 1× reaction buffer to a final concentration of 0.06 nM, and the resulting solution was added to the reaction microplate (2 μL per well). Full activity control (compound only with DMSO) and full inhibition control (no SHP-2) were set up on the reaction plate. After centrifugation, the reaction mixture was incubated at room temperature for 60 minutes.
After completion of the incubation, 25 μL of Substrate solution, which comprised Substrate with a final concentration of 10 μM and 5 mM DTT, was added to each well. After centrifugation, the reaction mixture was incubated at room temperature for 30 minutes. After completion of the reaction, readings were measured on the Synergy H1 full-function microplate reader (BioTek) (excitation wavelength: 340 nm, emission wavelength: […], gain value: 75).
The IC50 value of the test compounds was calculated by fitting the percentage inhibition rate and data of ten concentrations to a four-parameter nonlinear logic formula with GraphPad prism.

SMILES | IC50 [1] | IC50 [2]
Nc1nc(N2CCC3(CC2)Cc2ccccc2[C@H]3N)cnc1Sc1ccnc(N)c1C1CC1 [Example 91, (S)-1′-(6-amino-5-((2-amino-3-cyclopropylpyridin-4-yl)thio)pyrazin-2-yl)-1,3-dihydrospiro[indene-2,4′-piperidin]-1-amine] | 37 nM | 17.8 nM
Nc1nc(N2CCC3(CC2)Cc2ccccc2[C@H]3N)cnc1Sc1ccnc(Cl)c1C1CC1 [Example 92, (S)-1′-(6-amino-5-((2-chloro-3-cyclopropylpyridin-4-yl)thio)pyrazin-2-yl)-1,3-dihydrospiro[indene-2,4′-piperidin]-1-amine] | 10.5 nM | 4.17 nM
Nc1nc(N2CCC3(CC2)Cc2ccccc2[C@H]3N)cnc1Sc1ccnc(C2CC2)c1Cl [Example 93, (S)-1′-(6-amino-5-((3-chloro-2-cyclopropylpyridin-4-yl)thio)pyrazin-2-yl)-1,3-dihydrospiro[indene-2,4′-piperidin]-1-amine] | 31.1 nM | 4.33 nM
Nc1nc(N2CCC3(CC2)CC2CC2[C@H]3N)cnc1Sc1ccnc(N)c1C1CC1 (stereo partly drawn) [Example 94, (2R)-1′-(6-amino-5-((2-amino-3-cyclopropylpyridin-4-yl)thio)pyrazin-2-yl)spiro[bicyclo[3.1.0]hexane-3,4′-piperidin]-2-amine] | 184 nM | 11.7 nM
N[C@@H]1c2ccccc2CC12CCN(c1cnc(Sc3ccnc(C4CC4)c3Cl)cn1)CC2 [Example 97, (S)-1′-(5-((3-chloro-2-cyclopropylpyridin-4-yl)thio)pyrazin-2-yl)-1,3-dihydrospiro[indene-2,4′-piperidin]-1-amine] | 41.9 nM | 13.2 nM
Nc1nc(N2CCC3(CC2)Cc2ncsc2[C@H]3N)cnc1Sc1ccnc(C2CC2)c1Cl [Example 98, (S)-1′-(6-amino-5-((3-chloro-2-cyclopropylpyridin-4-yl)thio)pyrazin-2-yl)-4,6-dihydrospiro[cyclopenta[d]thiazole-5,4′-piperidin]-6-amine] | 18.5 nM | 3.93 nM
Nc1nc(N2CCC3(CC2)Cc2ccccc2[C@H]3N)cnc1Sc1ccnc(N2CCOCC2)c1Cl [Example 101, (S)-1′-(6-amino-5-((3-chloro-2-morpholinopyridin-4-yl)thio)pyrazin-2-yl)-1,3-dihydrospiro[indene-2,4′-piperidin]-1-amine] | 37.7 nM | 5.22 nM
Nc1nc(N2CCC3(CC2)Cc2ccccc2[C@H]3N)cnc1Sc1ccnc(N2CCCC2)c1Cl [Example 103, (S)-1′-(6-amino-5-((3-chloro-2-(pyrrolidin-1-yl)pyridin-4-yl)thio)pyrazin-2-yl)-1,3-dihydrospiro[indene-2,4′-piperidin]-1-amine] | 47 nM | 0.66 nM
Cc1nc(N2CCC3(CC2)Cc2ccccc2[C@H]3N)c(CO)nc1-c1cccc(Cl)c1Cl [Example 105, (S)-(3-(1-amino-1,3-dihydrospiro[indene-2,4′-piperidin]-1′-yl)-6-(2,3-dichlorophenyl)-5-methylpyrazin-2-yl)methanol] | 10.9 nM | 1.56 nM
Nc1nc(N2CCC3(CC2)CCC2(CC2)[C@H]3N)cnc1Sc1ccnc(N)c1Cl [Example 151, (R)-8-(6-amino-5-((2-amino-3-chloropyridin-4-yl)thio)pyrazin-2-yl)-8-azadispiro[2.1.55.23]dodecan-4-amine] | 137 nM | 7.71 nM
Nc1nc(N2CCC3(CC=C(C4CC4)[C@H]3N)CC2)c(F)nc1Sc1ccnc(N)c1Cl [Example 182, (S)-8-(6-amino-5-((2-amino-3-chloropyridin-4-yl)thio)-3-fluoropyrazin-2-yl)-2-cyclopropyl-8-azaspiro[4.5]dec-2-en-1-amine] | 78.5 nM | 3.78 nM
Cc1nc(N2CCC3(CC2)Cc2ccccc2[C@H]3N)c(CO)nc1Sc1ccnc(N)n1 [Example 183, (S)-(3-(1-amino-1,3-dihydrospiro[indene-2,4′-piperidin]-1′-yl)-6-((2-aminopyrimidin-4-yl)thio)-5-methylpyrazin-2-yl)methanol] | 105 nM | 6.7 nM

Other lines, results leading:

IC50 [1] | IC50 [2] | SMILES
6.39 nM | 6.27 nM | Nc1nc(N2CCC3(CC2)Cc2ccccc2[C@H]3N)c(Br)nc1Sc1ccnc(N)c1Cl [Example 95, (S)-1′-(6-amino-5-((2-amino-3-chloropyridin-4-yl)thio)-3-bromopyrazin-2-yl)-1,3-dihydrospiro[indene-2,4′-piperidin]-1-amine]
32.8 nM | 29.6 nM | Nc1nc(N2CCC3(CC2)Cc2nc(Cl)sc2[C@H]3N)cnc1Sc1ccnc(C2CC2)c1Cl [Example 99, (S)-1′-(6-amino-5-((3-chloro-2-cyclopropylpyridin-4-yl)thio)pyrazin-2-yl)-2-chloro-4,6-dihydrospiro[cyclopenta[d]thiazole-5,4′-piperidin]-6-amine]
24.5 nM | 0.98 nM | Nc1nc(N2CCC3(CC2)Cc2ccccc2[C@H]3N)cnc1Sc1ccnc(N2CCC2)c1Cl [Example 100, (S)-1′-(6-amino-5-((2-(azetidin-1-yl)-3-chloropyridin-4-yl)thio)pyrazin-2-yl)-1,3-dihydrospiro[indene-2,4′-piperidin]-1-amine]
42.6 nM | 3.75 nM | Nc1nc(N2CCC3(CC2)Cc2ccccc2[C@H]3N)cnc1Sc1ccnc(N2CC(F)(F)C2)c1Cl [Example 102, (S)-1′-(6-amino-5-((3-chloro-2-(3,3-difluoroazetidin-1-yl)pyridin-4-yl)thio)pyrazin-2-yl)-1,3-dihydrospiro[indene-2,4′-piperidin]-1-amine]
25.9 nM | 6.81 nM | Cc1nc(N2CCC3(CC2)Cc2ccccc2[C@H]3N)c(CO)nc1Sc1ccnc(N)c1Cl [Example 170, (S)-(3-(1-amino-1,3-dihydrospiro[indene-2,4′-piperidin]-1′-yl)-6-((2-amino-3-chloropyridin-4-yl)thio)-5-methylpyrazin-2-yl)methanol]
56.5 nM | 4.25 nM | CC1=CCC2(CCN(c3nc(N)c(Sc4ccnc(N)c4Cl)nc3F)CC2)[C@@H]1N [Example 184, (S)-8-(6-amino-5-((2-amino-3-chloropyridin-4-yl)thio)-3-fluoropyrazin-2-yl)-2-methyl-8-azaspiro[4.5]dec-2-en-1-amine]
